Measurements from the kinase profiling compilation of Christmann-Franck et al. (2016).

What was measured:
Test in all cases: KINOMEscan competition binding
Settings in all cases: compound 10.0 µM
MINK1 (human) = MINK1 (human) (UniProt Q8N4C8)
SLK (human) = SLK (human) (UniProt Q9H2G2)
PIK3CG (human) = PIK3CG (human) (UniProt P48736)
IRAK3 (human) = IRAK3 (human) (UniProt Q9Y616)
PLK3 (human) = PLK3 (human) (UniProt Q9H4B4)
CSNK1D (human) = CSNK1D (human) (UniProt P48730)
RIOK1 (human) = RIOK1 (human) (UniProt Q9BRS2)
PLK1 (human) = PLK1 (human) (UniProt P53350)
[1] = molecular target: TYK2 JH1 catalytic (human) (UniProt P29597)
ACVR1 (human) = ACVR1 (human) (UniProt Q04771)
STK16 (human) = STK16 (human) (UniProt O75716)
NEK5 (human) = NEK5 (human) (UniProt Q6P3R8)
BMP2K (human) = BMP2K (human) (UniProt Q9NSY1)
LCK (human) = LCK (human) (UniProt P06239)
SGK110 (human) = SGK110 (human) (UniProt P0C264)
PIP5K1A (human) = PIP5K1A (human) (UniProt Q99755)
STK17A (human) = STK17A (human) (UniProt Q9UEE5)
AURKB (human) = AURKB (human) (UniProt Q96GD4)
MAP4K4 (human) = MAP4K4 (human) (UniProt O95819)
AURKA (human) = AURKA (human) (UniProt O14965)
TTK (human) = TTK (human) (UniProt P33981)
PIP4K2B (human) = PIP4K2B (human) (UniProt P78356)
LATS2 (human) = LATS2 (human) (UniProt Q9NRM7)
TNK1 (human) = TNK1 (human) (UniProt Q13470)
MYLK3 (human) = MYLK3 (human) (UniProt Q32MK0)
TNIK (human) = TNIK (human) (UniProt Q9UKE5)
MAPK7 (human) = MAPK7 (human) (UniProt Q13164)
SRPK3 (human) = SRPK3 (human) (UniProt Q9UPE1)
GAK (human) = GAK (human) (UniProt O14976)
NEK2 (human) = NEK2 (human) (UniProt P51955)
DCLK1 (human) = DCLK1 (human) (UniProt O15075)
PLK4 (human) = PLK4 (human) (UniProt O00444)
CDK7 (human) = CDK7 (human) (UniProt P50613)
NLK (human) = NLK (human) (UniProt Q9UBE8)
CSNK1G3 (human) = CSNK1G3 (human) (UniProt Q9Y6M4)
[2] = molecular target: JAK2 JH1 catalytic (human) (UniProt O60674)
MELK (human) = MELK (human) (UniProt Q14680)
CSNK1E (human) = CSNK1E (human) (UniProt P49674)
TXK (human) = TXK (human) (UniProt P42681)
MERTK (human) = MERTK (human) (UniProt Q12866)
RPS6KA1 KD1 (human) = RPS6KA1 KD1 (human) (UniProt Q15418)
AURKC (human) = AURKC (human) (UniProt Q9UQB9)
FYN (human) = FYN (human) (UniProt P06241)
NEK9 (human) = NEK9 (human) (UniProt Q8TD19)
ADCK4 (human) = ADCK4 (human) (UniProt Q96D53)
MAP4K2 (human) = MAP4K2 (human) (UniProt Q12851)
RIOK3 (human) = RIOK3 (human) (UniProt O14730)
MYLK2 (human) = MYLK2 (human) (UniProt Q9H1R3)
[3] = molecular target: TYK2 JH2 pseudokinase (human) (UniProt P29597)
RIOK2 (human) = RIOK2 (human) (UniProt Q9BVS4)
MYLK4 (human) = MYLK4 (human) (UniProt Q86YV6)
AAK1 (human) = AAK1 (human) (UniProt Q2M2I8)
MAP2K3 (human) = MAP2K3 (human) (UniProt P46734)
MYO3B (human) = MYO3B (human) (UniProt Q8WXR4)
LATS1 (human) = LATS1 (human) (UniProt O95835)
IGF1R (human) = IGF1R (human) (UniProt P08069)
PAK1 (human) = PAK1 (human) (UniProt Q13153)
STK33 (human) = STK33 (human) (UniProt Q9BYT3)
ROS1 (human) = ROS1 (human) (UniProt P08922)
CDC42BPG (human) = CDC42BPG (human) (UniProt Q6DT37)
CAMKK2 (human) = CAMKK2 (human) (UniProt Q96RR4)
MYLK (human) = MYLK (human) (UniProt Q15746)
DCLK2 (human) = DCLK2 (human) (UniProt Q8N568)
LIMK2 (human) = LIMK2 (human) (UniProt P53671)

Chain of DCLK1 (human) (O15075 whole entry, looked up): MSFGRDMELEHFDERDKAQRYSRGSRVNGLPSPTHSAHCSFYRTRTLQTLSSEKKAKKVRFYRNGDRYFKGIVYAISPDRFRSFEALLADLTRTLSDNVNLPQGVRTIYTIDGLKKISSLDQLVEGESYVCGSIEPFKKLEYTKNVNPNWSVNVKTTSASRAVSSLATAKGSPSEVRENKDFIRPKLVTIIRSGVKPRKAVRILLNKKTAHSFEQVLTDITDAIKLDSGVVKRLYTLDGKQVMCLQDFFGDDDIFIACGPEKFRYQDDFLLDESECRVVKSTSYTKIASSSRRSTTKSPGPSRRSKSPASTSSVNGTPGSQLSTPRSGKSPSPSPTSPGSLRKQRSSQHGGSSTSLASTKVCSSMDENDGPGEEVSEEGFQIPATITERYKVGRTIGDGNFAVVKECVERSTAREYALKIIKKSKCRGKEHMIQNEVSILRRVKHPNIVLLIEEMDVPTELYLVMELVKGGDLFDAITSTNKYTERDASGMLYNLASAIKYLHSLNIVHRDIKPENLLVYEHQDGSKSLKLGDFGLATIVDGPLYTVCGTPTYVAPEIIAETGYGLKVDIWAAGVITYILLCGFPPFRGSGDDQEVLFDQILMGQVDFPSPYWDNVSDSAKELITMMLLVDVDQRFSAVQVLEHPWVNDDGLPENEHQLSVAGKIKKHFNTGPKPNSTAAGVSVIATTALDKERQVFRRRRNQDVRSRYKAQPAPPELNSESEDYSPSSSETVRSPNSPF
Chain of TTK (human) (P33981 whole entry, looked up): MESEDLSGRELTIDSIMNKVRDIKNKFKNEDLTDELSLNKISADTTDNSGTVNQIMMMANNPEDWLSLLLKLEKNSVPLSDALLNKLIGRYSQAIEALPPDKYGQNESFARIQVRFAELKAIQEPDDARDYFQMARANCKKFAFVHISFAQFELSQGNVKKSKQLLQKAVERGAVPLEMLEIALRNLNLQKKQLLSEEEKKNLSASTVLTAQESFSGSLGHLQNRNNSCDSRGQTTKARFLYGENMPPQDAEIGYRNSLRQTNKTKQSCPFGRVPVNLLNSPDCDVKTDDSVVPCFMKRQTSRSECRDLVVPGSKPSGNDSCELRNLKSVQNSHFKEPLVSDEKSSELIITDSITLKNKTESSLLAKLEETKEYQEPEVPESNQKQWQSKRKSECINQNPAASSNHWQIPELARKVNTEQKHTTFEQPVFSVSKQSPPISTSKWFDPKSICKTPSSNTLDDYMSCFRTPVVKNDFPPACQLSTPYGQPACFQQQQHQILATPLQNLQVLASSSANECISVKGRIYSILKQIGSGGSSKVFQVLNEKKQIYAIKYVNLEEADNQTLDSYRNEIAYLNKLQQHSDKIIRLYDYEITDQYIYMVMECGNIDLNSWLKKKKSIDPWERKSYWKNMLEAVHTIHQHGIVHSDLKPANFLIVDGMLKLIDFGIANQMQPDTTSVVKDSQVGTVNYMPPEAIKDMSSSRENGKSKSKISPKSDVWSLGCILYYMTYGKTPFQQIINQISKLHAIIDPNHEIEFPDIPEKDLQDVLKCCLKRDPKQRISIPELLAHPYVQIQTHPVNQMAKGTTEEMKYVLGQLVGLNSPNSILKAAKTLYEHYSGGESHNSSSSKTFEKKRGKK
Chain of GAK (human) (O14976 whole entry, looked up): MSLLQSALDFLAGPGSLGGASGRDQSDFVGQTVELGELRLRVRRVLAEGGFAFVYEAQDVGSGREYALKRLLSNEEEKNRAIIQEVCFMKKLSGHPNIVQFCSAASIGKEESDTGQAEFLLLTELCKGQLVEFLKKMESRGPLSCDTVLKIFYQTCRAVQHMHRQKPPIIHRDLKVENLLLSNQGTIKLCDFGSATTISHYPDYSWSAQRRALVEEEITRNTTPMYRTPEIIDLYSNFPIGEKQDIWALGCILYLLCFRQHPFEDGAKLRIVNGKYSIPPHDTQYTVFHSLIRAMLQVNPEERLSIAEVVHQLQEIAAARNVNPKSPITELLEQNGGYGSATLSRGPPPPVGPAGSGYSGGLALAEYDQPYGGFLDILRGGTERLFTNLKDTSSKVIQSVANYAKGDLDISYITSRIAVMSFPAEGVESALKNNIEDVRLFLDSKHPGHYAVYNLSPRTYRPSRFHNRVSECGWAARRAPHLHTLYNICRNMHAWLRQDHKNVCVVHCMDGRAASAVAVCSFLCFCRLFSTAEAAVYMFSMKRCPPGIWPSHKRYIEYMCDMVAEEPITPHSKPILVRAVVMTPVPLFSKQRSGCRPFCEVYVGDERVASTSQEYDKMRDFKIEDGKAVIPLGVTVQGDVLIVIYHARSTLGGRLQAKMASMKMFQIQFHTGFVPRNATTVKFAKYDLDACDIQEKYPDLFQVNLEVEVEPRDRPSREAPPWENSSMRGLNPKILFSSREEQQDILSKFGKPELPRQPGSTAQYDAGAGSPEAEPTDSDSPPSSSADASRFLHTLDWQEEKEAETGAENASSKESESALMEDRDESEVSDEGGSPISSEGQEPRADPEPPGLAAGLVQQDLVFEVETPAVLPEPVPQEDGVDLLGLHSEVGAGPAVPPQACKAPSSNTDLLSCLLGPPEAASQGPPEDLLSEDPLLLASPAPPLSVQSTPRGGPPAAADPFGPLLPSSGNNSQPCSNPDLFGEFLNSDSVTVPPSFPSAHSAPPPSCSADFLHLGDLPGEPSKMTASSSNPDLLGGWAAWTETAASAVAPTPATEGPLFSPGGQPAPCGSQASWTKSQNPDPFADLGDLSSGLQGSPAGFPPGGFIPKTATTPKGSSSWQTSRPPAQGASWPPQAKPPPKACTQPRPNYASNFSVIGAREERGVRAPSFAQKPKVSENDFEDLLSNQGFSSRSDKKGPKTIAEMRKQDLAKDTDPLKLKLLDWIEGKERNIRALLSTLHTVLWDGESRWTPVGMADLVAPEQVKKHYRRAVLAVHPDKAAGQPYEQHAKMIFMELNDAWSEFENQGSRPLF
Chain of SLK (human) (Q9H2G2 whole entry, looked up): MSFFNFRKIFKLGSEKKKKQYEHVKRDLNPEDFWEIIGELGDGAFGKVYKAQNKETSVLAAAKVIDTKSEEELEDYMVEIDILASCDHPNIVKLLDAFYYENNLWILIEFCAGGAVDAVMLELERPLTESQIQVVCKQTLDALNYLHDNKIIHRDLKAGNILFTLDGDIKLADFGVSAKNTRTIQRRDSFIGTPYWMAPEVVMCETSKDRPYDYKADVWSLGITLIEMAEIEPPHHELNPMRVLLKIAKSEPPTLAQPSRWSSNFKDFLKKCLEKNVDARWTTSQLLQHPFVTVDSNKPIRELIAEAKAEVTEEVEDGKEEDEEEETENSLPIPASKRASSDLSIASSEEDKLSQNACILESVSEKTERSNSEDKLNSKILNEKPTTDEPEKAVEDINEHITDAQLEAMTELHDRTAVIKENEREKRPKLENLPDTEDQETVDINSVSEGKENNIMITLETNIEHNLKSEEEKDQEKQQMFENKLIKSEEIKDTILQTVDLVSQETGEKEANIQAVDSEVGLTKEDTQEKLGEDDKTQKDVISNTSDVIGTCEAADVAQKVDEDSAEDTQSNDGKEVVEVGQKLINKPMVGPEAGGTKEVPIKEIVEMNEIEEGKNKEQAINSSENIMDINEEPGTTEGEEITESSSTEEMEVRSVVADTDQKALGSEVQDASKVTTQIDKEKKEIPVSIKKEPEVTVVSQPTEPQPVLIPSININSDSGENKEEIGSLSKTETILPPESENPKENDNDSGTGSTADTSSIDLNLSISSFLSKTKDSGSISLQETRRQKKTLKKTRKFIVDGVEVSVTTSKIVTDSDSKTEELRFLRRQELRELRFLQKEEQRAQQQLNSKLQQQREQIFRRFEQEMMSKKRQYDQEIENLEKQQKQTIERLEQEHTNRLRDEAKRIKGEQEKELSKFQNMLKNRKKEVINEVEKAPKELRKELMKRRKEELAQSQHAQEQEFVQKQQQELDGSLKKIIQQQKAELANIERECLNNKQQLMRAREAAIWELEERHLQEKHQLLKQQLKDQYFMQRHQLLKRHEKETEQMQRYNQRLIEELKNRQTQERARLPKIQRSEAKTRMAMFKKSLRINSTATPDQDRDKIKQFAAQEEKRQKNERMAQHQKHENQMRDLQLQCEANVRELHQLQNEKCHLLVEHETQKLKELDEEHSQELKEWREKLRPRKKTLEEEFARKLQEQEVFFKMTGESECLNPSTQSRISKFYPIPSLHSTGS
Chain of MAPK7 (human) (Q13164 whole entry, looked up): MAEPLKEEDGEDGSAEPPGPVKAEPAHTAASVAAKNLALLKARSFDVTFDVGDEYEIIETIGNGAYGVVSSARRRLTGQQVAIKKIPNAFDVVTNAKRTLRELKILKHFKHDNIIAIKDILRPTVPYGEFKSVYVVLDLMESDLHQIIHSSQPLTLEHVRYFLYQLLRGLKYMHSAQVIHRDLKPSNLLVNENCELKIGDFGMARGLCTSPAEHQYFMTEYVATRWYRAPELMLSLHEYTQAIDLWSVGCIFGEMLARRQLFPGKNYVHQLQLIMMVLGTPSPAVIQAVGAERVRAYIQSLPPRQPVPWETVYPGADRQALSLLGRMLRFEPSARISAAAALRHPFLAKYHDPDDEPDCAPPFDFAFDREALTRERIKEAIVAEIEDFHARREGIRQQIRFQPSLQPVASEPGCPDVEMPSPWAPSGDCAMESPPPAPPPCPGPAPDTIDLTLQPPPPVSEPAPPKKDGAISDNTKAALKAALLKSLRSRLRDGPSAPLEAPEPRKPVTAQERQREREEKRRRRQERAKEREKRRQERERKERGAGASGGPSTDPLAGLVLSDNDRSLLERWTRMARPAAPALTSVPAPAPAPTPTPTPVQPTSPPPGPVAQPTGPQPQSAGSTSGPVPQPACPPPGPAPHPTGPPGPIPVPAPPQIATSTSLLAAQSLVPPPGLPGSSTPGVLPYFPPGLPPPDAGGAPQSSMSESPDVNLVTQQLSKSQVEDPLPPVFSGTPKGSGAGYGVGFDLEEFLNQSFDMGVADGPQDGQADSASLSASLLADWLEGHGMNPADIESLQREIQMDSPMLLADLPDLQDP

## CN1C(=O)[C@H]2CCC[C@H]2N(C2CCCC2)c2nc(Nc3ccc4ncccc4c3)ncc21
MINK1 (human)
  kinase still bound, per cent of control: 1.6%
SLK (human)
  kinase still bound, per cent of control: 18%
PIK3CG (human)
  kinase still bound, per cent of control: 34%
IRAK3 (human)
  kinase still bound, per cent of control: 16%
PLK3 (human)
  kinase still bound, per cent of control: 10%
CSNK1D (human)
  kinase still bound, per cent of control: 4.3%
RIOK1 (human)
  kinase still bound, per cent of control: 7.2%
PLK1 (human)
  kinase still bound, per cent of control: 0.25%
[1]
  kinase still bound, per cent of control: 25%
ACVR1 (human)
  kinase still bound, per cent of control: 16%
STK16 (human)
  kinase still bound, per cent of control: 2.2%
NEK5 (human)
  kinase still bound, per cent of control: 11%
BMP2K (human)
  kinase still bound, per cent of control: 2.1%
LCK (human)
  kinase still bound, per cent of control: 19%
SGK110 (human)
  kinase still bound, per cent of control: 30%
PIP5K1A (human)
  kinase still bound, per cent of control: 19%
STK17A (human)
  kinase still bound, per cent of control: 3.3%
AURKB (human)
  kinase still bound, per cent of control: 21%
MAP4K4 (human)
  kinase still bound, per cent of control: 0.8%
AURKA (human)
  kinase still bound, per cent of control: 11%
TTK (human)
  kinase still bound, per cent of control: 26%
PIP4K2B (human)
  kinase still bound, per cent of control: 13%
LATS2 (human)
  kinase still bound, per cent of control: 14%
TNK1 (human)
  kinase still bound, per cent of control: 1.6%
MYLK3 (human)
  kinase still bound, per cent of control: 7.6%
TNIK (human)
  kinase still bound, per cent of control: 14%
MAPK7 (human)
  kinase still bound, per cent of control: 0.25%
SRPK3 (human)
  kinase still bound, per cent of control: 20%
GAK (human)
  kinase still bound, per cent of control: 1.8%
NEK2 (human)
  kinase still bound, per cent of control: 31%
DCLK1 (human)
  kinase still bound, per cent of control: 12%
PLK4 (human)
  kinase still bound, per cent of control: 1.9%
CDK7 (human)
  kinase still bound, per cent of control: 30%
NLK (human)
  kinase still bound, per cent of control: 12%
CSNK1G3 (human)
  kinase still bound, per cent of control: 20%
[2]
  kinase still bound, per cent of control: 15%
MELK (human)
  kinase still bound, per cent of control: 26%
CSNK1E (human)
  kinase still bound, per cent of control: 0.15%
TXK (human)
  kinase still bound, per cent of control: 34%
MERTK (human)
  kinase still bound, per cent of control: 28%
RPS6KA1 KD1 (human)
  kinase still bound, per cent of control: 27%
AURKC (human)
  kinase still bound, per cent of control: 4.6%
FYN (human)
  kinase still bound, per cent of control: 34%
NEK9 (human)
  kinase still bound, per cent of control: 30%
ADCK4 (human)
  kinase still bound, per cent of control: 10%
MAP4K2 (human)
  kinase still bound, per cent of control: 23%
RIOK3 (human)
  kinase still bound, per cent of control: 7.6%
MYLK2 (human)
  kinase still bound, per cent of control: 8.3%
[3]
  kinase still bound, per cent of control: 31%
RIOK2 (human)
  kinase still bound, per cent of control: 0.35%
MYLK4 (human)
  kinase still bound, per cent of control: 33%
AAK1 (human)
  kinase still bound, per cent of control: 12%

## O=C1NC(=O)C(=Cc2ccc(-c3ccc([N+](=O)[O-])cc3)o2)C(=O)N1
MAP2K3 (human)
  kinase still bound, per cent of control: 15%
MYO3B (human)
  kinase still bound, per cent of control: 28%
LATS1 (human)
  kinase still bound, per cent of control: 0%
IGF1R (human)
  kinase still bound, per cent of control: 34%
PAK1 (human)
  kinase still bound, per cent of control: 17%

## COc1cc(C(=O)NC2CCN(C)CC2)ccc1Nc1ncc2c(n1)N(C1CCCC1)[C@@H]1CCC[C@@H]1C(=O)N2C
SLK (human)
  kinase still bound, per cent of control: 5.8%
PLK3 (human)
  kinase still bound, per cent of control: 0%
STK33 (human)
  kinase still bound, per cent of control: 11%
ROS1 (human)
  kinase still bound, per cent of control: 31%
CDC42BPG (human)
  kinase still bound, per cent of control: 12%
PLK1 (human)
  kinase still bound, per cent of control: 15%
CAMKK2 (human)
  kinase still bound, per cent of control: 22%
TTK (human)
  kinase still bound, per cent of control: 28%
TNK1 (human)
  kinase still bound, per cent of control: 21%
MAPK7 (human)
  kinase still bound, per cent of control: 0.6%
GAK (human)
  kinase still bound, per cent of control: 13%
DCLK1 (human)
  kinase still bound, per cent of control: 2.4%
MYLK (human)
  kinase still bound, per cent of control: 2.6%
DCLK2 (human)
  kinase still bound, per cent of control: 2.8%
LIMK2 (human)
  kinase still bound, per cent of control: 8.3%
